The source of these data is patent US4771068A, “Mitomycin derivatives having anti-tumor and antibacterial utility” (priority 1985, dated 1988).

In data set [1] the test system is Proteus vulgalis ATCC 6897. Nature of the data set: Antibacterial activity (minimum growth inhibitory concentration), agar dilution method. The data set is classed as cell-based. The settings on record: pH 7, read-out: minimum growth inhibitory concentration, PV. As for the experimental part:
(§1) Antibacterial activities of Compounds (I) against various bacteria are shown by the minimum growth inhibitory concentration (μg/ml) in Table 3. The minimum growth inhibitory concentration was measured at pH 7.0 according to the agar dilution method. In the table, bacteria are indicated by the following letters.
PV: Proteus vulgalis ATCC 6897
(In general: Agar dilution tests growth on a series of plates holding different concentrations.)

The test system of data set [2] is Staphylococcus aureus ATCC 6538P. The description is as above. The data set is classed as cell-based. The conditions noted are these: ATCC6538P, pH 7.0, agar dilution method, read-out: minimum growth inhibitory concentration, SA. How it is done: as §1
SA: Staphylococcus aureus ATCC 6538P

For data set [3], the system named is Sarcoma 180 solid tumour. Nature of the data set: animal or person. The settings on record: for CIc: CI of test compound divided by CI of mitomycin C as control in the same condition; for ED50: Mus musculus, Sarcoma-180, iv, 168 h; for CI (LD50/ED50): chemotherapeutic index. The text has this: CIc : Value given by division of CI of each test compound by CI of
determination of antitumour activity of the test compound. A CIc
5×10^6 cells of Sarcoma 180 solid tumour were intraperitoneally implanted into ddY mice. 7 days later, ascites cells were sampled. The cells were washed once with a sterilized physiological sodium chloride solution and were used to prepare a cell suspension containing 5×10^7 cells per ml with a sterilized physiological sodium chloride solution. On each occasion, 0.1 ml of the cell suspension was subcutaneously implanted into the right axilla of a male mouse (ddY strain; body weight 20±2 g).
The anti-tumour activity was determined in the following manner. 7 days after the implantation, the major axis (a) and the minor axis (b) of the tumour were measured to calculate a value of "a×b^2 /2" which corresponds to the volume of the tumour. The anti-tumour activity was expressed by the ratio (T/C) of the volume (T) of the tumours of the group of animals administered with the test compound to the corresponding volume (C) of tumours of the untreated animals.
On graph paper, T/C was indicated by an arithmetic scale on the longitudinal axis and the administered amount of the test compound was indicated by a logarithmic scale on the lateral axis.

Data set [4] can be described thus: Acute toxicity. The conditions noted are these: mouse, in vivo, ip; ddY mice, intraperitoneally once, 14 days observation. How it is done:
Each animal of the test group consisting of 5 ddY mice was administered intraperitoneally once with a test compound. […] The LD50 was determined by Beherns Kaerber's method.

Data set [5] concerns Streptococcus faecalis ATCC 10541. Nature of the data set: Antibacterial activity (minimum growth inhibitory concentration), agar dilution method. In kind it is cell-based. The conditions noted are these: Enterococcus faecalis, ATCC10541; Streptococcus faecalis ATCC 10541, pH 7.0, agar dilution method; read-out: minimum growth inhibitory concentration, SF. How it is done:
as §1
SF: Streptococcus faecalis ATCC 10541

Data set [6] concerns peripheral leucocytes. Nature of the data set: Effect on the peripheral leucocytes number. The conditions noted are these: minimum dose reducing peripheral leucocytes number to 4000/mm^3; tumour-carrying ddY mice, intraperitoneal, 4 days after administration. The data set is classed as in vivo, mouse (ddY strain). As for the experimental part:
WBC4000 : Minimum dose of a test compound which reduces the
peripheral leucocytes number to 4000/mm^3.
Sarcoma 180 solid tumour cells (5×10^6) were subcutaneously implanted into the right axilla of each mouse (body weight 20±2 g) of a group consisting of 5 male mice (ddY strain). 24 hours after implantation,a test compound was intraperitoneally administered to each animal. 4 days after the administration, blood (each 0.02 ml) was collected from the suborbital plexus vein of each tumour-carrying animal. The collected sample of blood was dispersed in 9.98 ml of Cell-Kit Seven solution. One drop of saponin solution was added to the sample to dissolve erythrocytes and then a microcell counter was used to count the number of leucocytes. […] The relationship between the number of peripheral leucocytes and the dose of the test compound was plotted and the dose (i.e., WBC4000) corresponding to 4000 peripheral leucocytes/mm^3 (about half the number of leucocytes of normal mice) was obtained.

Data set [7] has as its system Klebsiella pneumoniae ATCC 10031. Briefly: Antibacterial activity (minimum growth inhibitory concentration), agar dilution method. In kind it is cell-based. The settings on record: ATCC10031; Klebsiella pneumoniae ATCC 10031, pH 7.0, agar dilution method; read-out: minimum growth inhibitory concentration, KP. As for the experimental part: as §1
KP: Klebsiella pneumoniae ATCC 10031

Data set [8] has as its system Bacillus subtilis 10707. The data set is described as above. In kind it is cell-based. The conditions noted are these: Bacillus subtilis 10707, pH 7.0, agar dilution method; read-out: minimum growth inhibitory concentration, BS. How it is done:
as §1
BS: Bacillus subtilis 10707

Converted amounts (≈) assume the structure as drawn.

What is called ED50 is the dose at which the effect has come halfway, by size or by number of responders. A low value points to greater potency. A word on the LD50: it is the dose at which mortality reaches 50%. As for `CCC(=O)SCCNC1=C(C)C(=O)C2=C(C1=O)[C@@H](COC(N)=O)[C@@]1(OC)[C@H]3N[C@H]3CN21` [Compound 5], the MIC in data set [1] is 1.3 µg/mL (≈ 2.89 µM); in data set [2], less than 0.02 µg/mL; in data set [5], less than 0.02 µg/mL; in data set [7], 0.31 µg/mL (≈ 0.688 µM); in data set [8], less than 0.02 µg/mL. Besides, the CIc in data set [3] was determined as 0.59. In data set [3], this compound showed an ED50 of 5 mg/kg. In data set [3], the “CI (LD50/ED50)” value was 0.94. Also, the LD50 at 336 h in data set [4] was 4.7 mg/kg. The compound also had a WBC4000 in data set [6] greater than 5 mg/kg.
Turning to `CCC(=O)SCCNC1=C(C)C(=O)C2=C(C1=O)[C@H](COC(N)=O)[C@@]1(O)[C@@H]3[C@H](CN21)N3C` (stereo partly shown) [Compound 6], the MIC was found to be 100 µg/mL (≈ 222 µM) in data set [1]; 13 µg/mL (≈ 28.9 µM) in data set [2]; 13 µg/mL (≈ 28.9 µM) in data set [5]; 25 µg/mL (≈ 55.5 µM) in data set [7]; 0.78 µg/mL (≈ 1.73 µM) in data set [8].
Take `CO[C@@]12[C@H](COC(N)=O)C3=C(C(=O)C(C)=C(NCCCCCCCCSC(C)=O)C3=O)N1C[C@@H]1N[C@@H]12` [Compound 12]: the MIC turned out to be 5 µg/mL (≈ 9.6 µM) in data set [1]; 0.31 µg/mL (≈ 0.595 µM) in data set [2]; 5 µg/mL (≈ 9.6 µM) in data set [5]; 1.3 µg/mL (≈ 2.5 µM) in data set [7]; 0.31 µg/mL (≈ 0.595 µM) in data set [8]. In data set [3], this compound registered a CIc of 1.3. In data set [3], the ED50 was 9.7 mg/kg. For the same compound, in data set [3], the “CI (LD50/ED50)” value is reported as 4.6. Besides, in data set [4], the LD50 at 336 h was determined as 45 mg/kg. Also, the WBC4000 in data set [6] was determined as 19.6 mg/kg.
In the case of `CC1=C(NCCSC(=O)c2ccccc2)C(=O)C2=C(C1=O)N1C[C@H]3[C@H](N3C)[C@]1(O)[C@H]2COC(N)=O` (stereo partly shown) [Compound 14], the MIC in data set [2] was greater than 100 µg/mL; in data set [5] it was 50 µg/mL (≈ 100 µM); in data set [7], greater than 100 µg/mL; in data set [8], 0.39 µg/mL (≈ 0.782 µM).
Take `CO[C@@]12[C@H](COC(N)=O)C3=C(C(=O)C(C)=C(NCCSC(=O)c4ccccc4)C3=O)N1C[C@H]1[C@@H]2N1C` (stereo partly shown) [Compound 16]: the MIC in data set [1] is greater than 40 µg/mL; in data set [2] it was 0.16 µg/mL (≈ 0.312 µM); in data set [5], 0.63 µg/mL (≈ 1.23 µM); in data set [7] it was 10 µg/mL (≈ 19.5 µM); in data set [8] it was 0.078 µg/mL (≈ 0.152 µM).
With `CC1=C(NCCSC(=O)c2ccc(F)cc2)C(=O)C2=C(C1=O)N1C[C@H]3[C@H](N3C)[C@]1(O)[C@H]2COC(N)=O` (stereo partly shown) [Compound 19, 7-N-[2-(4-fluorobenzoylthio)ethyl]mitomycin D], in data set [2], the MIC amounted to 6.3 µg/mL (≈ 12.2 µM). Besides, in data set [3], the CIc is 0.89, the 50% effect level (ED50) was put at a dose of 5.6 mg/kg and the “CI (LD50/ED50)” value is on record as 2.7. Moreover, the LD50 at 336 h in data set [4] stood at 15 mg/kg. In addition, the MIC in data set [5] is 100 µg/mL (≈ 194 µM). Besides, in data set [6], the WBC4000 is recorded as 19.1 mg/kg. Besides, in data set [8], the MIC came out at 1.6 µg/mL (≈ 3.1 µM).
As for `CC1=C(NCCSC(=O)c2ccc(Br)cc2)C(=O)C2=C(C1=O)N1C[C@H]3[C@H](N3C)[C@]1(O)[C@H]2COC(N)=O` (stereo partly shown) [Compound 22], the MIC is 0.39 µg/mL (≈ 0.675 µM) in data set [2], 25 µg/mL (≈ 43.3 µM) in data set [5], greater than 100 µg/mL in data set [7] and less than 0.049 µg/mL in data set [8].
Consider `COc1ccc(C(=O)SCCNC2=C(C)C(=O)C3=C(C2=O)[C@H](COC(N)=O)[C@@]2(O)[C@@H]4[C@H](CN32)N4C)cc1` (stereo partly shown) [Compound 24], for which the values for the MIC in data set [2], in data set [5] and in data set [8] were 1.6 µg/mL (≈ 3.03 µM), 100 µg/mL (≈ 189 µM) and 1.6 µg/mL (≈ 3.03 µM), respectively. The compound also registered a CIc in data set [3] of 1.3. In data set [3], this compound displayed a 50% effective dose (ED50) of 7.2 mg/kg. For the same compound, the “CI (LD50/ED50)” value in data set [3] amounted to 3.8. The compound further came in with an LD50 at 336 h in data set [4] of 27.5 mg/kg. For the same compound, in data set [6], the WBC4000 was 25.5 mg/kg.
On to `C=C1C2=C(C(=O)C(C)=C(NCCSC(C)=S)C2=O)N2C[C@H]3[C@H](N3C)[C@]12O` (stereo partly shown) [Compound 29], for which the MIC in data set [1] was 13 µg/mL (≈ 33.2 µM); in data set [2], 3.1 µg/mL (≈ 7.92 µM); in data set [5], greater than 100 µg/mL; in data set [7], 25 µg/mL (≈ 63.9 µM); in data set [8], 1.6 µg/mL (≈ 4.09 µM).
`CO[C@@]12[C@H](COC(N)=O)C3=C(C(=O)C(C)=C(N)C3=O)N1C[C@@H]1N[C@@H]12` [MMC, mitomycin C, reference compound] returned a CIc in data set [3] of 1. The compound further yielded a WBC4000 in data set [6] of 2.4 to 6.1 mg/kg.
